Measured values from patent US5656591A, “Antimicrobial agents and method for treating products therewith” (Morinaga Milk Industry Co., Ltd., priority 1992, dated 1997).

Assays:
[1] = system: Escherichia coli 0-111; experiment: Test for antimicrobial activity (turbidity): growth inhibiting concentration of antibiotics; format: cell-based
Method: (§1) Precultures of test microorganisms to be used in the tests described hereunder were prepared in such a manner that: from the frozen preservation of dispersions of test microorganisms, a loop of the respective strains of the microorganisms were taken out and spread onto TRI PETIT CASE SOYA AGAR MEDIA (by BBL Company), and incubated at 37° C. for 16 hours; the colonies grown on the culture media were scraped by a platinum loop and cultivated in 2.1% Mueller-Hington Broth (by Difco Company) respectively for several hours at 37° C. The resultant microbial cultures at logarithmic phase in 3×10^8 /ml of microbial concentration were used as the precultures.
(§2) The test media to be used in the respective tests were prepared in such a manner that: aqueous solutions in a predetermined concentration of the lactoferrin hydrolysates or the lactoferrin-derived antimicrobial peptides of (1) and (2) in Preparation of Samples (supra), as well as the samples of antibiotics of (3) (supra) were respectively sterilized with filters (by Advantec Company); then a quantity of the resultant solutions of respective samples were selectively added to a quantity of basal medium (Mueller-Hington Broth) prepared in the eventual concentration of 2.1%, thereby combinations of the samples and their concentrations in the respective test media were adjusted as specified in the respective tests.
(§3) Antimicrobial activity was examined as follows: A quantity of the respective precultures prepared in (1) immediately above was diluted with 2.1% Mueller-Hington Broth to result in 2×10^6 /ml of microbial concentration; 100 μl aliquots of the resultant liquid were added to 100 μl aliquots of one of the test media as specified in the respective test; the resultant media were incubated at 37° C. for 16 hours; then the turbidity of the resultant culture broths were measured thereby antimicrobial activity was examined.
(§4) Components in the test and control media and eventual concentrations thereof were adjusted by properly combining 0 mg, 0.4 mg, 1.6 mg and 6.4 mg/ml of lactoferrin hydrolysate of (1) (in Preparation of Samples, supra). or 0 μg, 16 μg, 64 μg, and 256 μg/ml of lactoferrin-derived antimicrobial peptides of (2) (in Preparation of Samples, supra), and 0 μg, 0.01 μg, 0.1 μg, 1 μg, and 10 μg/ml of antibiotics of (3) (supra), then antimicrobial activity of the combined use of the components against Escherichia coli 0-111 and Staphylococcus aureus (JCM2151) as well as growth inhibiting concentrations of the antibiotics were investigated.

[2] = system: Staphylococcus aureus JCM2151; experiment: as above; format: cell-based; conditions: for MIC: Staphylococcus aureus
Method: as §1, §2, §3, §4

[3] = system: Staphylocoecus aureus (JCM-2151); experiment: Viability assay in Mueller-Hington Broth; format: cell-based, Staphylococcus aureus
Method: as §1
as §2, with “tests. […]” for “tests.”

[4] = Escherichia coli, 0111, antimicrobial peptide (Seq. ID No. 27) 0 μg/ml
[5] = Escherichia coli, 0111, antimicrobial peptide (Seq. ID No. 27) 16 μg/ml
[6] = Escherichia coli, 0111, antimicrobial peptide (Seq. ID No. 27) 64 μg/ml
[7] = Escherichia coli, 0111, antimicrobial peptide (Seq. ID No. 27) 256 μg/ml
[8] = lactoferrin hydrolysate 0 mg/ml
[9] = lactoferrin hydrolysate 0.4 mg/ml
[10] = lactoferrin hydrolysate 1.6 mg/ml
[11] = lactoferrin hydrolysate 6.4 mg/ml
[12] = JCM2151, antimicrobial peptide (Seq. ID No. 27) 0 μg/ml
[13] = JCM2151, antimicrobial peptide (Seq. ID No. 27) 16 μg/ml
[14] = JCM2151, antimicrobial peptide (Seq. ID No. 27) 64 μg/ml
[15] = JCM2151, antimicrobial peptide (Seq. ID No. 27) 256 μg/ml

Row | SMILES | MIC [1, 4] [µg/mL] | MIC [1, 5] [µg/mL] | MIC [1, 6] [µg/mL] | MIC [1, 7] [µg/mL] | Growth inhibiting Concentration of antibiotics [1, 8] [µg/mL] | Growth inhibiting Concentration of antibiotics [1, 9] [µg/mL] | Growth inhibiting Concentration of antibiotics [1, 10] [µg/mL] | Growth inhibiting Concentration of antibiotics [1, 11] [µg/mL] | MIC [2, 12] [µg/mL] | MIC [2, 13] [µg/mL] | MIC [2, 14] [µg/mL] | MIC [2, 15] [µg/mL] | Growth inhibiting Concentration of antibiotics [2, 8] [µg/mL] | Growth inhibiting Concentration of antibiotics [2, 9] [µg/mL] | Growth inhibiting Concentration of antibiotics [2, 10] [µg/mL] | Growth inhibiting Concentration of antibiotics [2, 11] [µg/mL] | survival rate ([3]; Test 25: streptomycin 1 μg/ml alone (control row)) [%] | survival rate ([3]; Test 25: penicillin 1 μg/ml alone (control row)) [%]
1 | [H]/N=C(/N)N[C@H]1[C@H](O)[C@@H](O)[C@H](O[C@@H]2O[C@@H](C)[C@](O)(C=O)[C@H]2O[C@@H]2O[C@@H](CO)[C@H](O)[C@@H](O)[C@@H]2NC)[C@@H](N/C(N)=N\[H])[C@@H]1O [streptomycin] | > 1 | > 1 | 1 | 0.01 | > 1 | > 1 | 1 | 0.01 | > 1 | > 1 | 1 | 0.01 | > 1 | > 1 | 1 | 0.1 | 12.4 | 
2 | CC1(C)S[C@@H]2[C@H](NC(=O)Cc3ccccc3)C(=O)N2[C@H]1C(=O)O [penicillin] | > 1 | > 1 | 1 | 0.1 | > 1 | 1 | 1 | 0.1 | > 1 | 1 | 1 | 0.1 | > 1 | 1 | 1 | 0.1 |  | 14.2
